Data published in patent US10986835B2, “Use of 9-tricosene to control Drosophila suzukii” (Globachem NV, priority 2016, dated 2021).

Tests used:
Drosophila suzukii [1] = experiment: Behavior assay: courtship behavior of wild type 4-day-old males towards perfumed flies; type: in vivo; settings: compound in n-hexane painted onto abdomen; 4 tested conditions (perfumed 1-day-old females, 1-day-old males, 4-day-old females, 4-day-old males) paired with wild type 4-day-old males; filmed two hours; FIG. 1
Procedure: (§1) Drosophila suzukii adults were caught in the wild (Sint-Truiden, Limburg, Belgium). The flies were reared in quarantined facilities at 21° C. on Cornmeal-sucrose-yeast-agar medium.
(§2) All flies were collected within 12 hours of eclosing, after which they were used to make one-day-old samples or aged to four days old. The four-day-old socially nave flies were aged separated from the other sex, contrary to the socially experienced flies, which were aged, mixed with the other sex.
N-hexane (95%), n-heneicosane (98%), n-tricosane (98%), (Z)-7-tricosene (98%) and (Z)-9-tricosene (97%) were bought from Thermo-Fischer and Sigma Aldrich. (Z)-5-tricosene (99%) and 2-methyloctacosane (95%) were synthesized by a hired company, Ecosynth (Gent, Belgium). These compounds were dissolved in n-hexane (95%) and painted onto the abdomen of Drosophila suzukii flies using number 2 paintbrushes. The four-day-old flies were perfumed 24 hours prior to testing, one-day-old flies 1 hour prior to testing.
Behavior assays were performed in a room with regulated temperature (21° C.) and always at the same time (10 h30). The perfumed Drosophila suzukii flies were put individually with a wild type four-day-old Drosophila suzukii male in a circular arena (3 cm diameter). Every couple was filmed for two hours, due to the low activity rate of the species, using Sony Handycams CX240. Subsequently these videos were analyzed for courtship behavior and copulation based on Mazzoni et al. 2013 (Plos One 8(11): e80708). The behavioral data was analyzed using a contingency table and followed by t-tests, as well as one-way ANOVA tests for the continuous data.
Behavior experiments were performed as follows. Four different conditions of flies were perfumed: one-day-old females, one-day-old males, four-day-old females and four-day-old males. These perfumed flies were paired with wild type four-day-old males. Subjects were scored for both courtship modules as well as copulation. As a control the solvent for the perfumes (n-hexane) was used.

Drosophila suzukii [2] = experiment: Behavior assay: copulation between wild type 4-day-old males and perfumed 4-day-old females; type: in vivo; settings: perfumed four-day-old females paired with wild type four-day-old males; filmed two hours; FIG. 3
Procedure: as §1, §2
N-hexane (95%), n-heneicosane (98%), n-tricosane (98%), (Z)-7-tricosene (98%) and (Z)-9-tricosene (97%) were bought from Thermo-Fischer and Sigma Aldrich. (Z)-5-tricosene (99%) and 2-methyloctacosane (95%) were synthesized by a hired company, Ecosynth (Gent, Belgium). These compounds were dissolved in n-hexane (95%) and painted onto the abdomen of Drosophila suzukii flies using number 2 paintbrushes. […]
Behavior assays were performed in a room with regulated temperature (21° C.) and always at the same time (10 h30). […] Subsequently these videos were analyzed for courtship behavior and copulation based on Mazzoni et al. 2013 (Plos One 8(11): e80708). The behavioral data was analyzed using a contingency table and followed by t-tests, as well as one-way ANOVA tests for the continuous data.
Behavior experiments were performed as follows. […] Subjects were scored for both courtship modules as well as copulation. […]

Structure (SMILES)	effect on occurrence of courtship (Drosophila suzukii [1])	effect on occurrence of copulation (Drosophila suzukii [2])
CCCCCCCCCCCCCCCCCCCCCCCCCCC(C)C [2-methyloctacosane]	no significant differences	
CCCC/C=C\CCCCCCCCCCCCCCCCC [(Z)-5-tricosene]	no significant differences	
CCCCCC/C=C\CCCCCCCCCCCCCCC [(Z)-7-tricosene]	no significant differences	significantly decreased
CCCCCCCC/C=C\CCCCCCCCCCCCC [(Z)-9-tricosene]	no significant differences	significantly decreased
CCCCCCCCCCCCCCCCCCCCC [n-heneicosane]	no significant differences	
CCCCCCCCCCCCCCCCCCCCCCC [n-tricosane]	no significant differences	
